Measured values taken from article PMC7532997, “Cytotoxic Constituents of the Bark of Hypericum roeperianum towards Multidrug-Resistant Cancer Cells” (Evidence-based Complementary and Alternative Medicine : eCAM, 2020).

Assays:
[1] = tested on: CCRF-CEM leukemia cells; assay: Resazurin reduction assay (RRA), 72 h; type: cell-based; settings: Homo sapiens, 72 h incubation
Excerpt: (§1) Cell lines used in this work included drug-sensitive and drug-resistant phenotypes of earlier reported origin. They were all provided by Prof. Dr. Thomas Efferth from his cell lines collection; they have being used in cytotoxicity screening by our team for a decade. These include two hematological cancer cell lines, namely, the drug-sensitive CCRF-CEM leukemia cell line and its multidrug-resistant P-gp-over-expressing subline CEM/ADR5000 cells and […] carcinoma cell lines, namely, U87.MG glioblastoma cell line and its EGFR-transfected U87.MGΔEGFR subline, HCT116 (p53^+/+) colon cancer cell line and its knockout clone HCT116 (p53^−/^−), and MDA-MB-231-pcDNA3 breast cancer cell line and its BCRP-transfected multidrug-resistant MDA-MB-231-BCRP clone 23 cell line, as well as the normal AML12 hepatocytes, used to compare with HepG2 liver cancer cells.
(§2) The RRA was applied to evaluate the cytotoxicity of botanicals, the isolated phytochemicals (1–5, 7, and 8), and doxorubicin on the cell growth as reported earlier. Cells treated with various samples at different concentrations were incubated for 72 h in humidified 5% CO2 atmosphere at 37°C. Cells were further coloured with resazurin and incubated for 1–2 h; the fluorescence was further measured with an Infinite M2000 Pro™ plate reader (Tecan, Crailsheim, Germany) at 544 nm as the excitation wavelength and 590 nm as the emission wavelength. The IC50 values represented the concentrations of the sample required to inhibit 50% of cell proliferation and were calculated from a calibration curve by linear regression using Microsoft Excel 2007 [29].

[2] = tested on: normal AML12 hepatocytes; assay: Resazurin reduction assay (RRA), 72 h; type: cell-based; settings: for Selectivity index: IC50 normal AML12 hepatocytes divided by IC50 HepG2; for IC50: Mus musculus, AML12 normal hepatocytes, 72 h incubation
Excerpt: as §1, §2

[3] = tested on: HCT116 (p53-/-) colon cancer cells; assay: Resazurin reduction assay (RRA), 72 h; type: cell-based; settings: Homo sapiens, HCT-116, 72 h incubation
Excerpt: as §1, §2

[4] = tested on: MDA-MB-231-BCRP breast cancer cells; assay: Resazurin reduction assay (RRA), 72 h; type: cell-based; settings: 72 h incubation
Excerpt: as §1, §2

[5] = tested on: MDA-MB-231-pcDNA breast cancer cells; assay: Resazurin reduction assay (RRA), 72 h; type: cell-based; settings: 72 h incubation
Excerpt: as §1, §2

[6] = tested on: CEM/ADR5000 leukemia cells (P-gp-overexpressing); assay: Resazurin reduction assay (RRA), 72 h; type: cell-based; settings: Homo sapiens; CEM/ADR5000, 72 h incubation
Excerpt: as §1, §2

[7] = tested on: U87MG glioblastoma cells; assay: Resazurin reduction assay (RRA), 72 h; type: cell-based; settings: Homo sapiens, U-87 MG, 72 h incubation
Excerpt: as §1, §2

[8] = tested on: U87MG.ΔEGFR glioblastoma cells; assay: Resazurin reduction assay (RRA), 72 h; type: cell-based; settings: 72 h incubation
Excerpt: as §1, §2

[9] = tested on: HCT116 (p53+/+) colon adenocarcinoma cells; assay: Resazurin reduction assay (RRA), 72 h; type: cell-based; settings: Homo sapiens, HCT-116, 72 h incubation
Excerpt: as §1, §2

[10] = tested on: HepG2 hepatocarcinoma cells; assay: Resazurin reduction assay (RRA), 72 h; type: cell-based; settings: Homo sapiens; HepG2, 72 h incubation
Excerpt: as §1, §2

[11] = tested on: 9 tested cancer cell lines; assay: Resazurin reduction assay (RRA), whole panel; type: cell-based; settings: for cytotoxic effect over the panel (in words): 9 tested cancer cell lines; for IC50: whole cell line panel, 72 h, read-out: IC50 in the cancer cells tested
Excerpt: as §1, §2

[12] = tested on: all cancer cell lines tested in the present study; design: method as in PMID 24075210; settings: cited from earlier work
[13] = tested on: caspase 9 in CCRF-CEM cells; assay: Caspase-Glo 9 assay; type: cell-based; settings: 6 h, compared to untreated cells
Procedure: (§3) Different concentrations of HRB and compound 1 were used to treat CCRF-CEM cells for 6 h. The activities of caspases were determined using Caspase-Glo 3/7, Caspase-Glo 8, and Caspase-Glo 9 Assay kits (Promega, Mannheim, Germany) by measuring the luminescence using an Infinite M2000 ProTM plate reader (Tecan), as reported previously.

[14] = tested on: reactive oxygen species in CCRF-CEM cells; assay: ROS production (H2DCFH-DA staining, flow cytometry); type: cell-based; settings: 24 h
Procedure: Various concentrations of HRB and triterpenoid 1 were used to treat CCRF-CEM cells (1 × 10^6 cells); DMSO (solvent control); or hydrogen peroxide (H2O2; positive control). After 24 h incubation in humidified 5% CO2 atmosphere at 37°C, the production of ROS was evaluated using 2′,7′-dichlorodihydrofluorescein diacetate (H2DCFH-DA) (Sigma-Aldrich) staining, as described earlier.

[15] = tested on: CCRF-CEM cells; assay: Flow cytometric cell cycle distribution (propidium iodide); type: cell-based; settings: 24 h
Procedure: Various concentrations of botanical HRB, phytochemical 1, and doxorubicin or DMSO (solvent control) were used to treat CCRF-CEM cells (1 × 10^6 cells). Cells were further incubated for 24 h in humidified 5% CO2 atmosphere at 37°C and analyzed using a BD Accury C6 Flow Cytometer (BD Biosciences, Heidelberg, Germany) by measuring the propidium iodide fluorescence of individual nucleus, as described earlier. Experiments were conducted thrice independently with three parallel measurements.

[16] = tested on: caspases 3/7 in CCRF-CEM cells; assay: Caspase-Glo 3/7 assay; type: cell-based; settings: 6 h, compared to untreated cells
Procedure: as §3

[17] = tested on: caspase 8 in CCRF-CEM cells; assay: Caspase-Glo 8 assay; type: cell-based; settings: 6 h, compared to untreated cells
Procedure: as §3

[18] = tested on: CCRF-CEM cells; assay: Apoptosis by annexin V/PI staining; type: cell-based; settings: 24 h, 2 × IC50
Procedure: The CCRF-CEM cells (1 × 10^6; 1 ml) were also treated with HRB, compound 1 and doxorubicin for 24 h (in humidified 5% CO2 atmosphere at 37°C), and apoptosis was further assessed by flow cytometry using the flouresceinisothiocynate- (FITC-) conjugated annexin V/PI assay kit (eBioscience™Annexin V; Invitogen, San Diego, USA), as previously published. Briefly, treated cells were centrifuged at 1200 rpm for 5 min, then washed twice with ice-cold PBS, resuspended in 500 µl binding buffer, and stained with 5 µl FITC-conjugated annexin V ([…]) and 10 µl PI ([…]). After 15 min incubation at room temperature (RT) in the dark, cells were analyzed using a BD Accury C6 Flow Cytometer (BD Biosciences). Cells stained with only annexin V were evaluated as being in early apoptosis. Cells stained with both annexin V and propidium iodide were evaluated as being in late apoptosis or in a necrotic stage.

[19] = tested on: K562 leukemia cells; design: method as in PMID 31479710; settings: cited from earlier work
[20] = tested on: HepG2 cells; design: method as in PMID 31360210; settings: cited from earlier work
[21] = tested on: CEM-ADR5000 cells; design: method as in PMID 31360210; settings: cited from earlier work

IC50 [1] [µM] | IC50 [3] [µM] | IC50 [4] [µM] | IC50 [5] [µM] | IC50 [6] [µM] | IC50 [7] [µM] | IC50 [8] [µM] | IC50 [9] [µM] | IC50 [10] [µM] | Molecule | IC50 [2] [µM] | cytotoxic effect over the panel (in words) [11] | also measured
16.3 ± 2.12 | > 85.5 | 30.5 ± 1.88 | 36.9 ± 2.73 | 43.5 ± 2.97 | 35.5 ± 3.28 | 30.6 ± 3.14 | 37.8 ± 2.92 | 31.3 ± 1.19 | COc1cc(C2Oc3ccc4c(=O)c5ccccc5oc4c3OC2CO)cc(OC)c1O (stereo not drawn) [Compound 8, 3′-hydroxymethyl-2′-(4″-hydroxy-3″,5″-dimethoxyphenyl)-5′,6′:5,6-(xanthone)-1′,4′-dioxane] | > 85.5 | selective cytotoxic effects | –
14.4 ± 0.53 | 44.2 ± 3.21 | 15 ± 1.17 | 16.5 ± 0.74 | 18.3 ± 1.56 | 16.2 ± 1.09 | 14.7 ± 1.55 | 17.4 ± 1.84 | 21.7 ± 3.18 | C[C@H]1C(=O)CC[C@@H]2[C@]1(C)CC[C@H]1[C@@]2(C)CC[C@@]2(C(=O)O)C3CC(C)(C)CC[C@]3(C)CC[C@]12C (stereo partly drawn) [Compound 1, trichadonic acid] | 47.3 ± 0.81 | – | increase of caspase 9 activity [13]: 2.23 fold; ROS production ([14]; 7.22 µM): 12.35%; ROS production ([14]; 57.76 µM): 68.12%; ROS production ([14]; 2 × IC50): ≤ 68.12%; cell cycle arrest (phase, in words) [15]: cell cycle arrest in the Go/G1 phase; cells in sub-G0/G1 phase ([15]; 1/4 × IC50): 1.86%; cells in sub-G0/G1 phase ([15]; 2 × IC50): 17.40%; increase of caspases 3/7 activity [16]: 2.52 fold; increase of caspase 8 activity [17]: 2.62 fold; IC50 [11]: 14.4 to 44.2 µM; annexin V (+)/PI (+) cells [18]: 52.5%
16.8 ± 0.96 | > 165 | 33.6 ± 1.99 | 43.8 ± 3.47 | 53 ± 3.08 | 74.4 ± 4.75 | 45 ± 5.22 | 46.7 ± 3.38 | 44.2 ± 2.65 | COc1cccc2c(=O)c3cc(O)ccc3oc12 [Compound 3, 2-hydroxy-5-methoxyxanthone] | > 165 | selective cytotoxic effects | –
19.9 ± 2.12 | > 154 | 20.4 ± 1.17 | > 154 | 23.2 ± 1.66 | 106 ± 6.74 | 30.4 ± 2.91 | 40.2 ± 3.09 | 32.4 ± 3.72 | O=c1c2cc(O)c(O)cc2oc2cc(O)cc(O)c12 [Compound 4, 1,3,6,7-tetrahydroxyxanthone] | 45.4 ± 3.52 | selective cytotoxic effects | Selectivity index [2]: 1.40

More lines, now with the values behind:

Molecule | IC50 [1] [µM] | IC50 [3] [µM] | IC50 [4] [µM] | IC50 [5] [µM] | IC50 [6] [µM] | IC50 [7] [µM] | IC50 [8] [µM] | IC50 [9] [µM] | IC50 [10] [µM] | IC50 [2] [µM] | cytotoxic effect over the panel (in words) [11] | also measured
COc1cc(C2Oc3ccc4c(=O)c5c(O)cc(O)cc5oc4c3OC2CO)cc(OC)c1O (stereo not drawn) [Compound 7, 3′-hydroxymethyl-2′-(4″-hydroxy-3″,5″-dimethoxyphenyl)-5′,6′:5,6-(6,8-dihydroxyxanthone)-1′,4′-dioxane] | 23.3 ± 1.46 | > 91.7 | 22.2 ± 2.88 | 20.7 ± 1.32 | 54 ± 4.38 | 29.7 ± 1.77 | 12.7 ± 0.75 | > 91.7 | 25.2 ± 1.69 | 20.9 ± 1.17 | selective cytotoxic effects | Selectivity index [2]: 0.83
cudraxanthone I | – | – | – | – | – | – | – | – | – | – | – | IC50 [12]: < 10 µM
O=c1c2ccc(O)c(O)c2oc2cc(O)cc(O)c12 [Compound 5, 1,3,5,6-tetrahydroxyxanthone] | 38.6 ± 2.11 | 112 ± 8.49 | 62.9 ± 5.32 | 75.2 ± 4.88 | 38.5 ± 4.07 | 61.4 ± 3.39 | 59 ± 6.01 | 75.5 ± 6.1 | 64.7 ± 5.77 | 150 ± 7.03 | – | cytotoxic effect against K562 [19]: 12.98 µg/mL; IC50 ([19]; read-out: cytotoxic effect against K562): 49.9 µM
OO [H2O2, Hydrogen peroxide, reference compound] | – | – | – | – | – | – | – | – | – | – | – | ROS levels ([14]; 50 µM): 94.30%
COc1cccc2c1C(=O)c1c(O)c3c(c(O)c1C2=O)C[C@@](O)(C(=O)CO)C[C@@H]3O[C@H]1C[C@H](N)[C@H](O)[C@H](C)O1 [Doxorubicin, reference compound] | 0.02 | 1.78 ± 0.08 | 0.79 ± 0.08 | 0.13 ± 0.01 | – | 0.26 ± 0.03 | 0.98 ± 0.07 | – | 4.56 ± 0.48 | 52.9 ± 4.09 | – | cell cycle arrest (phase, in words) [15]: S and G2/M phase arrest
C[C@H]1C(=O)CC[C@@H]2[C@]1(C)CC[C@H]1[C@@]2(C)CC[C@@]2(C)C3CC(C)(C)CC[C@]3(C)CC[C@]12C (stereo partly drawn) [Compound 2, fridelan-3-one] | – | – | – | – | – | – | – | – | – | – | – | IC50 [11]: > 100 µM
C=C(C)[C@@H]1CC[C@]2(C(=O)O)CC[C@]3(C)[C@H](CC[C@@H]4[C@@]5(C)CC[C@H](O)C(C)(C)[C@@H]5CC[C@]43C)[C@@H]12 [Compound 6, betulinic acid] | – | – | – | – | – | – | – | – | – | – | – | IC50 [20]: 44.2 µM; IC50 [21]: 7.65 µM
